Assay results taken from patent US20180256673A1, “METHODS FOR TREATING FUNGAL INFECTIONS” (priority 2015, published 2018).
Where “and” joins values, the source holds several entries; their conditions need not be identical. Equal entries are not always repeated. Where two headings read alike, the source gives them in different places. Starred links: 1 amine or outer side, 2 acyl side, 3 side chain; linkers in the order of their positions; H or OH if unused. Positions of bridges follow the written chain, without caps; N, C: chain ends. Non-standard residues stand in square brackets, D forms with d. Residues, ends and D or L forms follow the SMILES beside them. *: point of attachment. Orn(4R-OH,5R-OCH2CH2NMe3+) = C[N+](C)(C)CCO[C@@H](N[*:3])[C@H](O)C[C@H](N[*:1])C(=O)[*:2]; pTerphenylCO(4''-OnC5H11) = CCCCCOc1ccc(-c2ccc(-c3ccc(C(=O)*)cc3)cc2)cc1; hTyr(3S-OH,4S-OH) = N[C@H](C(=O)O)[C@H](O)[C@@H](O)c1ccc(O)cc1; Pro(3S-OH,4S-Me) = C[C@H]1CN[C@H](C(=O)O)[C@H]1O; Hyp = O=C(O)[C@@H]1C[C@@H](O)CN1

What was measured:
[1] = tested on: C. tropicalis vaginal isolates; experiment: Susceptibility testing of VVC clinical isolates at pH 7 and 4 (CLSI M27-A3); format: cell-based; details: Candida tropicalis
Aspergillus fumigatus = experiment: Broth microdilution of invasive fungal isolates (CLSI M27-A3/M38-A2), MEC; format: cell-based; details: 56 isolates
[2] = tested on: C. parapsilosis vaginal isolates; experiment: Susceptibility testing of VVC clinical isolates at pH 7 and 4 (CLSI M27-A3); format: cell-based, Candida parapsilosis
Candida orthopsilosis = experiment: Broth microdilution of invasive fungal isolates (CLSI M27-A3/M38-A2); format: cell-based; details: 10 isolates
C. krusei ATCC 6258 = experiment: microbe, parasite or virus in culture; format: cell-based, Candida krusei; details: Pichia kudriavzevii
Candida krusei = experiment: Broth microdilution of invasive fungal isolates (CLSI M27-A3/M38-A2); format: cell-based; details: 16 isolates
Candida albicans = experiment: as above; format: cell-based
C. albicans NRRL Y-477 = format: cell-based, Candida albicans
Method: Spontaneous mutant selection. […] Three individual colonies from each strain were used to start cultures in RPMI. […] One milliliter aliquots were spread onto SDA plates containing drug with sterile glass beads. Starting viable count was enumerated by triplicate plating of serial dilutions of the starting inoculum. […] Glycerol stocks of putative mutant colonies were stored at −80° C. […] Spontaneous mutation frequencies were calculated by dividing the number of resistant colonies on a given plate by the starting inoculum plated. A subset of mutants (weighted heavily towards those selected with CMP1) were then evaluated by MIC and sequencing of FKS gene hot spot regions.

Candida tropicalis = experiment: Broth microdilution of invasive fungal isolates (CLSI M27-A3/M38-A2); format: cell-based
[3] = tested on: C. glabrata ATCC 90030, ATCC 2001; experiment: Broth microdilution MIC (CLSI), Examples 3 and 4; details: Nakaseomyces glabratus
Method: Antifungal susceptibility testing. Candida strains were cultured aerobically at 35° C. on SDA plates or in RPMI 1640 broth (pH 7.0). […] MIC assays were performed in triplicate.

CCCCCOc1ccc(-c2ccc(-c3ccc(C(=O)N[C@H]4C[C@@H](O)[C@@H](OCC[N+](C)(C)C)NC(=O)[C@@H]5[C@@H](O)[C@@H](C)CN5C(=O)[C@H]([C@@H](C)O)NC(=O)[C@H]([C@H](O)[C@@H](O)c5ccc(O)cc5)NC(=O)[C@@H]5C[C@@H](O)CN5C(=O)[C@H]([C@@H](C)O)NC4=O)cc3)cc2)cc1 [Compound 1] ({pTerphenylCO(4''-OnC5H11)}-[Orn(4R-OH,5R-OCH2CH2NMe3+)]T[Hyp][hTyr(3S-OH,4S-OH)]T[Pro(3S-OH,4S-Me)]; lactam 1-C)
MIC90 ([1]; 24 h, pH 4): 0.5 µg/mL
MIC90 ([1]; 24 h, pH 7): 0.125 µg/mL
MIC90 ([1]; 48 h, pH 4): 2 µg/mL
MIC90 ([1]; 48 h, pH 7): 0.125 µg/mL
Cumulative % of isolates inhibited at MEC 0.015 μg/mL (Aspergillus fumigatus): (92.9) %
Cumulative % of isolates inhibited at MEC 0.03 μg/mL (Aspergillus fumigatus): (100.0) %
Cumulative % of isolates inhibited at MEC ≤0.008 μg/mL (Aspergillus fumigatus): (41.1) %
Number of isolates inhibited at MEC 0.015 μg/mL (Aspergillus fumigatus): 29
Number of isolates inhibited at MEC 0.03 μg/mL (Aspergillus fumigatus): 4
Number of isolates inhibited at MEC ≤0.008 μg/mL (Aspergillus fumigatus): 23
MIC90 ([2]; 24 h, pH 4): 2 µg/mL
MIC90 ([2]; 24 h, pH 7): 2 µg/mL
MIC90 ([2]; 48 h, pH 4): 2 µg/mL
MIC90 ([2]; 48 h, pH 7): 4 µg/mL
Cumulative % of isolates inhibited at MIC 0.12 μg/mL (Candida orthopsilosis): (10.0) %
Cumulative % of isolates inhibited at MIC 0.25 μg/mL (Candida orthopsilosis): (40.0) %
Cumulative % of isolates inhibited at MIC 0.5 μg/mL (Candida orthopsilosis): (50.0) %
Cumulative % of isolates inhibited at MIC 1 μg/mL (Candida orthopsilosis): (90.0) %
Cumulative % of isolates inhibited at MIC 2 μg/mL (Candida orthopsilosis): (100.0) %
Number of isolates inhibited at MIC 0.12 μg/mL (Candida orthopsilosis): 1
Number of isolates inhibited at MIC 0.25 μg/mL (Candida orthopsilosis): 3
Number of isolates inhibited at MIC 0.5 μg/mL (Candida orthopsilosis): 1
Number of isolates inhibited at MIC 1 μg/mL (Candida orthopsilosis): 4
Number of isolates inhibited at MIC 2 μg/mL (Candida orthopsilosis): 1
MIC50 (Candida orthopsilosis; Lodderomyces orthopsilosis, read-out: MIC50): 0.5 µg/mL
MIC90 (Candida orthopsilosis; Lodderomyces orthopsilosis, read-out: MIC90): 1 µg/mL
MIC (C. krusei ATCC 6258; ATCC6258): 0.125 µg/mL
MIC (C. krusei ATCC 6258; ATCC6258, read-out: MIC P20): 0.125 µg/mL
Cumulative % of isolates inhibited at MIC 0.015 μg/mL (Candida krusei): (18.8) %
Cumulative % of isolates inhibited at MIC 0.03 μg/mL (Candida krusei): (87.5) %
Cumulative % of isolates inhibited at MIC 0.06 μg/mL (Candida krusei): (100.0) %
Number of isolates inhibited at MIC 0.015 μg/mL (Candida krusei): 3
Number of isolates inhibited at MIC 0.03 μg/mL (Candida krusei): 11
Number of isolates inhibited at MIC 0.06 μg/mL (Candida krusei): 2
concentration at which all isolates were inhibited (Candida krusei): ≤ 0.06 µg/mL
MIC50 (Candida krusei; Pichia kudriavzevii, read-out: MIC50): 0.03 µg/mL
MIC90 (Candida krusei; Pichia kudriavzevii, read-out: MIC90): 0.06 µg/mL
Cumulative % of isolates inhibited at MIC 0.015 μg/mL (Candida albicans; 251 isolates): (49.4) %
Cumulative % of isolates inhibited at MIC 0.03 μg/mL (Candida albicans; 251 isolates): (85.7) %
Cumulative % of isolates inhibited at MIC 0.06 μg/mL (Candida albicans; 251 isolates): (96.8) %
Cumulative % of isolates inhibited at MIC 0.12 μg/mL (Candida albicans; 251 isolates): (100.0) %
Cumulative % of isolates inhibited at MIC ≤0.008 μg/mL (Candida albicans; 251 isolates): (6.8) %
Number of isolates inhibited at MIC 0.015 μg/mL (Candida albicans; 251 isolates): 107
Number of isolates inhibited at MIC 0.03 μg/mL (Candida albicans; 251 isolates): 91
Number of isolates inhibited at MIC 0.06 μg/mL (Candida albicans; 251 isolates): 28
Number of isolates inhibited at MIC 0.12 μg/mL (Candida albicans; 251 isolates): 8
Number of isolates inhibited at MIC ≤0.008 μg/mL (Candida albicans; 251 isolates): 17
MIC50 (Candida albicans; Candida albicans, 251 isolates, read-out: MIC50): 0.03 µg/mL
MIC90 (Candida albicans; Candida albicans, 251 isolates, read-out: MIC90): 0.06 µg/mL
concentration at which all isolates were inhibited (Candida albicans; all 251 isolates): ≤ 0.12 µg/mL
Median mutation frequency (C. albicans NRRL Y-477): 5.00E−08
Plate concentration (C. albicans NRRL Y-477; SDA, minimum concentration to cleanly inhibit growth): 0.06 µg/mL
Freq. (replicate mutation frequency) (C. albicans NRRL Y-477; replicate plates 1-3, listed as CMP1): 5.00E−08 and 2.27E−08 and 5.47E−08
Cumulative % of isolates inhibited at MIC 0.015 μg/mL (Candida tropicalis; 51 isolates): (56.9) %
Cumulative % of isolates inhibited at MIC 0.03 μg/mL (Candida tropicalis; 51 isolates): (88.2) %
Cumulative % of isolates inhibited at MIC 0.06 μg/mL (Candida tropicalis; 51 isolates): (100.0) %
Cumulative % of isolates inhibited at MIC ≤0.008 μg/mL (Candida tropicalis; 51 isolates): (3.9) %
Number of isolates inhibited at MIC 0.015 μg/mL (Candida tropicalis; 51 isolates): 27
Number of isolates inhibited at MIC 0.03 μg/mL (Candida tropicalis; 51 isolates): 16
Number of isolates inhibited at MIC 0.06 μg/mL (Candida tropicalis; 51 isolates): 6
Number of isolates inhibited at MIC ≤0.008 μg/mL (Candida tropicalis; 51 isolates): 2
MIC50 (Candida tropicalis; Candida tropicalis, 51 isolates, read-out: MIC50): 0.015 µg/mL
MIC90 (Candida tropicalis; Candida tropicalis, 51 isolates, read-out: MIC90): 0.06 µg/mL
concentration at which all isolates were inhibited (Candida tropicalis; n=51): ≤ 0.06 µg/mL
MIC ([3]; ATCC2001|ATCC90030, 24 h, read-out: Broth MIC, ATCC 2001 wild-type, 24 h, ~50% inhibition): 0.125 µg/mL
MIC ([3]; ATCC2001|ATCC90030, 24 h, read-out: Broth MIC, ATCC 90030 wild-type, 24 h, ~50% inhibition): 0.06 µg/mL
MIC ([3]; ATCC2001|ATCC90030, ATCC 2001 spontaneous mutant, Fks2 HS1 D666N): 0.5 µg/mL
MIC ([3]; ATCC2001|ATCC90030, ATCC 2001 spontaneous mutant, Fks2 HS1 D666Y): 0.5 µg/mL
